In patent US20180078569A1, “KITS FOR INDENTIFYING AND TREATING SUBJECTS RESISTANT TO ACETYL SALICYLIC ACID” (priority 2006, published 2018):

How the values were obtained:
COX-1 [1] = biological target: T1, COX-1 (Homo sapiens, UniProt P23219); assay: Thrombin-induced thromboxane production in platelets from bypass patients treated in vitro; format: cell-based; conditions: for thromboxane production induced by thrombin: platelets from patients subjected to aorto-coronary bypass, treated in vitro
T1 construct: prostaglandin H synthase, an enzyme present in platelets and commonly defined as COX-1; endogenous in cells; host or cells: washed platelets from donors' venous blood (healthy volunteers; patients 5 days after aorto-coronary bypass)
T1 sequence (P23219 24-599): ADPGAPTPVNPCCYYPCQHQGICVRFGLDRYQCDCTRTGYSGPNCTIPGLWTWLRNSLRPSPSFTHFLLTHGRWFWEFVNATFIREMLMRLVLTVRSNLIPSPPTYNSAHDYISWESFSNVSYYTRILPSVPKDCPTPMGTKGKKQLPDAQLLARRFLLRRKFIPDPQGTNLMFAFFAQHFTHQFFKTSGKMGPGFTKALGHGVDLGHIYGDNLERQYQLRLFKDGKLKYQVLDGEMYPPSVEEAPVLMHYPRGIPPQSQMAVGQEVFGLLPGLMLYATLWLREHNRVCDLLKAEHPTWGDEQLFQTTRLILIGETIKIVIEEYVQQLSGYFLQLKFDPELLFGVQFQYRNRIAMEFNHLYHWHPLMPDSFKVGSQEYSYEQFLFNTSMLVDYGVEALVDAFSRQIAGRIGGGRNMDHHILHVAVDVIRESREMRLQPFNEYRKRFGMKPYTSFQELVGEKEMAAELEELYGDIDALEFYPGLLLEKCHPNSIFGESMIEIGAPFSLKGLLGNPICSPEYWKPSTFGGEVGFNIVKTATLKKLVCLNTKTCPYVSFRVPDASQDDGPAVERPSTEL
Method: patients at 5 days from an aortic-coronary-bypass.
(§1) The evaluation of the biologic efficacy of aspirin in platelets was made by studying Thromboxane A2 production, a specific marker of the cyclooxygenase pathway in platelets. Aspirin and/or Dipyridamole treated platelets (see above) were activated with thrombin 1 U/ml for 1 h at 37° C., and then centrifugated 1 min at 8.000 g. Thromboxane B2, a stable metabolite of TXA2, was measured in the supernatant through a commercial ELISA kit (Cayman, chemicals Co).

[2] = oral administration; cited from earlier work
COX-1 [3] = biological target: T1, COX-1; assay: Thrombin-induced thromboxane production of aspirinated platelets (TxB2 ELISA); format: cell-based; conditions: for thrombin-induced production of thromboxane: aspirinated platelets, with or without inhibitor added prior to ASA; for reduction of thromboxane production: inhibitor added prior to ASA, versus aspirinated platelets not pretreated
Method: The resuspended platelets in the Tyrode's buffer at the concentration of 2.5×10^8 cells/ml were treated with aspirin (50 microM) at 10° C. for 15 min and then kept at 37° C. or at 4° C. for 15 min.
MRP4 inhibitors were used such as Dipyridamole and MK571 ((E)-3-[[[3-[2-(7-chloro-2-quinolinyl)ethenyl]phenyl]-[[3-dimethylamino)-3-oxo-propyl]-thio]-methyl]thio]-propanoic acid), both at 100 microM and incubated 30 min at RT before aspirin addition.
as §1

MRP4-mediated transport [4] = biological target: T2, MRP4-mediated transport (Homo sapiens, UniProt O15439); assay: Cytosolic concentrations of ASA and salicylic acid in platelets incubated with ASA (HPLC); format: cell-based; conditions: for cytosolic concentration of acetylsalicylic acid (ASA) / cytosolic concentration of metabolite salicylic acid: platelets pretreated with inhibitor (dipyridamole 100 microM) 10 minutes before ASA 50 microM, compared to platelets treated with solvent alone (DMSO)
T2 construct: endogenous in cells; host or cells: washed platelets (and a dense-granule suspension made from them) from donors' venous blood
T2 sequence (O15439 1-1325): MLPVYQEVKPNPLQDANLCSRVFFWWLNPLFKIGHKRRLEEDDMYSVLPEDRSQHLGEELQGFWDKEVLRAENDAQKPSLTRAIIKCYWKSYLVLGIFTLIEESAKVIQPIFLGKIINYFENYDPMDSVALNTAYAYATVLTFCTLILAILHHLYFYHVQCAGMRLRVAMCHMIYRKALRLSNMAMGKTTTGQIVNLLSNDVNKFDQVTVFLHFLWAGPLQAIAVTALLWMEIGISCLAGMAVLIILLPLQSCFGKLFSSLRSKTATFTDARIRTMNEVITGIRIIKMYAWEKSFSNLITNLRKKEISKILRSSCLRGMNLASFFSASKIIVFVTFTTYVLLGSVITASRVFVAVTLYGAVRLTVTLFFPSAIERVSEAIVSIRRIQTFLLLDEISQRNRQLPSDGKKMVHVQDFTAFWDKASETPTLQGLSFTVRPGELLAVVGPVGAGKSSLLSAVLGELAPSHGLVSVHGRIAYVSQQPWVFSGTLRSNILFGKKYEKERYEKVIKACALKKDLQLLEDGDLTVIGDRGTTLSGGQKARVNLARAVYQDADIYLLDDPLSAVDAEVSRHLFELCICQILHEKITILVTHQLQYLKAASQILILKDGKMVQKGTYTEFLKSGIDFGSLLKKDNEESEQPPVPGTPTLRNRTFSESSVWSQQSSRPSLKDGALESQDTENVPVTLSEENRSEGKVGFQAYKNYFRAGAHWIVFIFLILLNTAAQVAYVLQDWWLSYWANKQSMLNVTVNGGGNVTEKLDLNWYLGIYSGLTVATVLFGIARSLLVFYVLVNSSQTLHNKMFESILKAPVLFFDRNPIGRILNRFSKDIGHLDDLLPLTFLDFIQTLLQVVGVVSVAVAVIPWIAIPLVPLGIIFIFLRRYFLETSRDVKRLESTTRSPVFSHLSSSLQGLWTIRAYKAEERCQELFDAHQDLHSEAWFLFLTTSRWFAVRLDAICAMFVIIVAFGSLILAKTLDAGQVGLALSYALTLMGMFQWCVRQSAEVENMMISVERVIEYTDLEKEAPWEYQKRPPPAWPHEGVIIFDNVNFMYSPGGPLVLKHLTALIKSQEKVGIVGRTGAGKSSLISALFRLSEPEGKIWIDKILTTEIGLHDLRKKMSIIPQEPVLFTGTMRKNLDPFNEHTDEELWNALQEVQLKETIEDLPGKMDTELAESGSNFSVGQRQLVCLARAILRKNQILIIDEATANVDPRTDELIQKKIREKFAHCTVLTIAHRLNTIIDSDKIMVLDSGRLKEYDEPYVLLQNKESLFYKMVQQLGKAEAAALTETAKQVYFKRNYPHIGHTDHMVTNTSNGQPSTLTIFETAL
Excerpt: (§2) 1987, 9, 243-7) and a beta-counter for measuring the radioactive aspirin.
Dipyridamole, in addition to inhibiting the transport mediated by these channels, is also an inhibitor of platelet activity, in that it increases the platelet concentrations of AMPc, inhibiting phosphodiesterase isoform V (PDE typeV).
(§3) The PRP was then subjected to platelet count through blood cell count Celltac Auto Nihon Kohden (MEK 8118K). The platelets were then moved away from plasma through centrifugation of PRP, acidified at pH 6.5 with ACD (citric acid, sodium citrate and glucose 1/10 v/v), at 800×g for 10 min. and resuspended in Tyrode's buffer (CaCl2 0.20 g/L, KCl 0.20 g/L, […], NaCl 8.00 g/L, NaH2PO4*H2O), at pH 7.35 and charged with glucose and albumin. The preparation of a dense rich platelet granule suspension was made according to the method reported by (Fukami M H et al. J. Cell. Biol. 1978, 77, 389-99) and the degree of purity was verified through mepacrine Fluorimetric probe and the purity percentage was checked through the cytofluorimeter. If the concentration of the dense granules compared to the other organelles was lower than 80%, the suspension of platelet granules was not used for the study.
The resuspended platelets in the Tyrode's buffer at the concentration of 2.5×10^8 cells/ml were treated with aspirin (50 microM) at 10° C. for 15 min and then kept at 37° C. or at 4° C. for 15 min. […]
(§4) The entrapment of aspirin inside platelets or in the dense granules was measured through the method of Gaspari and Locatelli (Ther Drug Monit. 1987, 9, 243-7).

[5] = test system: cardiovascular complications; conditions: daily intake 75-150 mg/day, patients who previously had coronary disease; cited from earlier work
MRP4-mediated transport [6] = biological target: T2, MRP4-mediated transport; assay: ASA concentration in platelet dense granule preparation treated with ASA and ATP; format: cell-based
Method: as §2, §3
In the rich platelet dense granule suspension, ATP and ASA were added to the preparation, then it was kept at 37° C. for 15 min so a to reduce the transpost mediated by MRP4; the suspension was pretreated either with apyrase, an ATP scavenger substance or with Dipyridamole 30 min before adding aspirin, or the treatment with aspirin was made at 4° C.
as §4

MRP4-mediated transport [7] = biological target: T2, MRP4-mediated transport; assay: Release of 14C-labelled ASA and of ATP from thrombin-activated platelets; format: cell-based; conditions: platelets pretreated with dipyridamole
Method: Aspirin labelled with 14C (American Radiolabeled Chemicals, Inc. Saint Louis, USA) was added to the platelet suspension for 15 min at 37° C. After removing the excess of the substance marked by double centrifugation, the platelets were activated with Thrombin (0.2 U/ml) and then centrifugated. The reduction of the transport mediated by MRP4 was made through the preincubation of the platelet preparation with Dipyridamole 30 min before aspirin addition. The results are reported by evaluating the percentage of the radioactive present in the supernatant compared to the total radioactivity of the platelet preparation. ATP secretion was analyzed as a control through the luminometric method with commercial kit (Chronolog, Hevertown, Pa., USA).

[8] = treatment of platelets with ASA at 4° C. instead of 37° C.
[9] = pretreatment before ASA, relative to maximum obtained with ATP in external medium at 37° C.

Compound | thromboxane production induced by thrombin (COX-1 [1]) | thrombin-induced production of thromboxane (COX-1 [3]) | reduction of thromboxane production (COX-1 [3]) | cytosolic concentration of acetylsalicylic acid (ASA) (MRP4-mediated transport [4]) | cytosolic concentration of metabolite salicylic acid (MRP4-mediated transport [4]) | ASA concentration in platelet granules (MRP4-mediated transport [6]; [9]) | other results
CC(=O)Oc1ccccc1C(=O)O [ASA, acetylsalicylic acid] | 1437.0±549.1 ng/10^8 cells | 343.7 ng/10^8 cells | – | – | – | – | bioavailability [2]: 40-50%; half-life [2]: 15 to 20 min; plasma concentration peak registered after [2]: 30 to 40 min; platelet inhibition manifested after administration [2]: one; increase of cytosolic concentration of ASA (MRP4-mediated transport [4]; [8]): 240%; increase of cytosolic concentration of salicylate (MRP4-mediated transport [4]; [8]): 160%; reduction of the risk of cardiovascular complications (myocardial infarction, cerebral infarction and vascular death) [5]: 25%; ASA concentration in platelet granules (MRP4-mediated transport [6]; incubation of ASA at 4° C., relative to maximum obtained with ATP at 37° C.): 53.6%
CN(C)C(=O)CCSC(SCCC(=O)O)c1cccc(/C=C/c2ccc3ccc(Cl)cc3n2)c1 (centres unmarked) [MK-571] | – | 140.22 ng/10^8 cells | 59.2% | 208% | 202% | – | –
Clc1cccc(Nc2nnc(-c3ccccc3)c3ccccc23)c1 [MY-5445, 1-(3-chlorophenylamino)-4-phenylphthalazine] | – | – | – | 110% | 120% | – | –
OCCN(CCO)c1nc(N2CCCCC2)c2nc(N(CCO)CCO)nc(N3CCCCC3)c2n1 [dipyridamole, 2,6-bis-(diethanolamino)-4,8-dipiperidino-(5,4-d)-pyrimidine] | 499.8±247.7 ng/10^8 cells | 142.7 ng/10^8 cells | 58% | 285% | 293% | 41.7% | thromboxane production with respect to platelets treated with aspirin alone (COX-1 [1]; platelets from bypass patients pretreated in vitro before aspirin): 35%; release of radiolabelled ASA after activation with thrombin (MRP4-mediated transport [7]; thrombin 0.2 U/ml): absent; ATP released by the platelets (MRP4-mediated transport [7]; thrombin-activated): 1.8 ± 0.3 nmol
apyrase | – | – | – | – | – | 56.1% | –
